ChEMBL document CHEMBL1201862, “PubChem BioAssay data set” (2004)
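A five-concentration, 48-hour dose response in 96-well plates underlies each endpoint, interpolated linearly between surrounding concentrations. Here, GI50 denotes the concentration required for 50% inhibition of growth.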 Activity calls are given as the source filed them. Cut-off read from the data, not from the text of the source: active = GI50 up to about 1.1 µM and inactive = higher.

Experiments:
Assay in all cases: NCI tumour cell line growth inhibition, 48 h
[1] = tested on: A498
[2] = tested on: A549
[3] = tested on: CAKI-1
[4] = tested on: CCRF-CEM
[5] = tested on: COLO 205
[6] = tested on: DLD-1
[7] = tested on: DMS-114
[8] = tested on: DMS-273
[9] = tested on: EKVX
[10] = tested on: HCC 2998
[11] = tested on: HCT-116
[12] = tested on: HCT-15
[13] = tested on: HL-60
[14] = tested on: HOP-18
[15] = tested on: HOP-62
[16] = tested on: HOP-92
[17] = tested on: HT-29
[18] = tested on: IGROV-1
[19] = tested on: K562
[20] = tested on: KM-20L2
[21] = tested on: KM12
[22] = tested on: LOX IMVI
[23] = tested on: M19-MEL
[24] = tested on: MCF7
[25] = tested on: MOLT-4
[26] = tested on: Malme-3M
[27] = tested on: NCI-H226
[28] = tested on: NCI-H23
[29] = tested on: NCI-H460
[30] = tested on: NCI-H522
[31] = tested on: NCI/ADR-RES
[32] = tested on: OVCAR-3
[33] = tested on: OVCAR-4
[34] = tested on: OVCAR-5
[35] = tested on: OVCAR-8
[36] = tested on: RPMI-8226
[37] = tested on: RXF 393
[38] = tested on: SF-268
[39] = tested on: SF-295
[40] = tested on: SF-539
[41] = tested on: SK-MEL-28
[42] = tested on: SK-MEL-2
[43] = tested on: SK-MEL-5
[44] = tested on: SK-OV-3
[45] = tested on: SN12C
[46] = tested on: SNB-19
[47] = tested on: SNB-75
[48] = tested on: SNB-78
[49] = tested on: SW-620
[50] = tested on: U-251
[51] = tested on: UACC-257
[52] = tested on: UACC-62
[53] = tested on: UO-31
[54] = tested on: XF498
[55] = tested on: ACHN
[56] = tested on: M14
[57] = tested on: SR
[58] = tested on: TK-10
[59] = tested on: 786-0

In the case of `COc1cc2c(oc(=O)c3cc(C)cc(OC)c32)c2c(C3OC(C)C(O)C(C)(O)C3O)ccc(O)c12` (centres undefined), the GI50 [1] is reported as 0.465 µM (active), the GI50 [2] is reported as 0.439 µM (active) and the GI50 [3] is reported as 0.432 µM (active). The GI50 [4] was 0.0955 µM (active), the GI50 [5] was 0.551 µM (active) and the GI50 [6] was 0.845 µM (active). The GI50 [7] was 0.315 µM (active), the GI50 [8] was 0.336 µM (active) and the GI50 [9] was 0.776 µM (active). For the same compound, the GI50 [10] was 0.665 µM (active), the GI50 [11] was 0.216 µM (active) and the GI50 [12] was 0.662 µM. The GI50 [13] was 0.045 µM (active), the GI50 [14] was 1.41 µM (inactive) and the GI50 [15] was 0.284 µM (active). The GI50 [16] was 0.745 µM (active), the GI50 [17] was 0.463 µM (active) and the GI50 [18] was 0.815 µM (active). The GI50 [19] was 0.277 µM (active), the GI50 [20] was 0.664 µM (active) and the GI50 [21] was 0.771 µM (active). The GI50 [22] was 0.32 µM (active), the GI50 [23] was 0.706 µM (active) and the GI50 [24] was 0.237 µM (active). For the same compound, the GI50 [25] was 0.075 µM (active), the GI50 [26] was 0.673 µM (active) and the GI50 [27] was 0.376 µM (active). The GI50 [28] was 0.223 µM (active), the GI50 [29] was 0.142 µM (active) and the GI50 [30] was 0.389 µM (active). The GI50 [31] was 0.622 µM (active), the GI50 [32] was 0.785 µM (active) and the GI50 [33] was 0.467 µM (active). For the same compound, the GI50 [34] was 0.681 µM (active), the GI50 [35] was 0.256 µM (active) and the GI50 [36] was 0.454 µM (active). For the same compound, the GI50 [37] was 0.38 µM (active), the GI50 [38] was 0.349 µM (active) and the GI50 [39] was 0.358 µM (active). The GI50 [40] was 0.466 µM (active), the GI50 [41] was 0.861 µM (active) and the GI50 [42] was 0.794 µM (active). For the same compound, the GI50 [43] was 0.581 µM (active), the GI50 [44] was 1.18 µM (inactive) and the GI50 [45] was 0.402 µM (active). For the same compound, the GI50 [46] was 0.562 µM (active), the GI50 [47] was 0.571 µM (active) and the GI50 [48] was 0.755 µM (active). The GI50 [49] was 0.312 µM (active), the GI50 [50] was 0.335 µM (active) and the GI50 [51] was 0.731 µM (active). The GI50 [52] was 0.414 µM (active), the GI50 [53] was 1.04 µM (active) and the GI50 [54] was 0.37 µM (active).

For `N#CC1=C(O)NC(O)=C(C#N)C1c1c(Cl)cccc1Cl`, the GI50 [1] was 23.2 µM (inactive), the GI50 [2] was 27.3 µM (inactive) and the GI50 [55] was 33.3 µM (inactive). For the same compound, the GI50 [3] was 30.1 µM (inactive), the GI50 [4] was > 100 µM (inactive) and the GI50 [5] was 37.1 µM (inactive). The GI50 [6] was 16.7 µM (inactive), the GI50 [7] was 18.8 µM (inactive) and the GI50 [8] was 26.2 µM (inactive). For the same compound, the GI50 [9] was 40.7 µM (inactive), the GI50 [10] was 7.93 µM (inactive) and the GI50 [11] was 29 µM (inactive). For the same compound, the GI50 [12] was 20.4 µM, the GI50 [13] was 81.5 µM (inactive) and the GI50 [14] was > 100 µM (inactive). The GI50 [15] was 27.7 µM (inactive), the GI50 [16] was 15.8 µM (inactive) and the GI50 [17] was 39.4 µM (inactive). The GI50 [18] was 40.6 µM (inactive), the GI50 [19] was > 100 µM (inactive) and the GI50 [20] was 34.8 µM (inactive). The GI50 [21] was 22.1 µM (inactive), the GI50 [22] was 15.8 µM (inactive) and the GI50 [56] was 26.9 µM (inactive). The GI50 [23] was 21.4 µM (inactive), the GI50 [25] was > 100 µM (inactive) and the GI50 [26] was 23.1 µM (inactive). The GI50 [27] was 17.9 µM (inactive), the GI50 [28] was 29.4 µM (inactive) and the GI50 [29] was 20.9 µM (inactive). For the same compound, the GI50 [30] was 35.2 µM (inactive), the GI50 [32] was 32.9 µM (inactive) and the GI50 [33] was 67.8 µM (inactive). The GI50 [34] was 33.5 µM (inactive), the GI50 [35] was 20.2 µM (inactive) and the GI50 [36] was > 100 µM (inactive). For the same compound, the GI50 [37] was 7.8 µM (inactive), the GI50 [38] was 30.9 µM (inactive) and the GI50 [39] was 34.8 µM (inactive). The GI50 [40] was 20 µM (inactive), the GI50 [41] was 22.2 µM (inactive) and the GI50 [42] was 18.8 µM (inactive). For the same compound, the GI50 [43] was 27.3 µM (inactive), the GI50 [44] was 23.6 µM (inactive) and the GI50 [45] was 31.8 µM (inactive). The GI50 [46] was 38.6 µM (inactive), the GI50 [47] was 11.7 µM (inactive) and the GI50 [48] was 26.2 µM (inactive). For the same compound, the GI50 [57] was > 100 µM (inactive), the GI50 [49] was 37.2 µM (inactive) and the GI50 [58] was 40.4 µM (inactive). The GI50 [50] was 32.7 µM (inactive), the GI50 [51] was 35.2 µM (inactive) and the GI50 [52] was 23.5 µM (inactive). The GI50 [53] was 37.9 µM (inactive) and the GI50 [54] was 61.4 µM (inactive).

For `COCCOCOc1ccc(OCOCCOC)c2c1C(=O)c1ccccc1C2=O`, the GI50 [59] was 92.9 µM (inactive), the GI50 [1] was 68.7 µM (inactive) and the GI50 [2] was 46.6 µM (inactive). The GI50 [55] was 62.7 µM (inactive), the GI50 [3] was 33.7 µM (inactive) and the GI50 [4] was 27 µM (inactive). The GI50 [5] was 54.1 µM (inactive), the GI50 [6] was 26.3 µM (inactive) and the GI50 [7] was 3.19 µM (inactive). The GI50 [8] was 49.1 µM (inactive), the GI50 [9] was 38.3 µM (inactive) and the GI50 [10] was 61.7 µM (inactive). For the same compound, the GI50 [11] was 29.4 µM (inactive), the GI50 [12] was 30.3 µM and the GI50 [13] was 18.4 µM (inactive). For the same compound, the GI50 [14] was 77.1 µM (inactive), the GI50 [15] was > 100 µM (inactive) and the GI50 [16] was > 79.6 µM (inactive). For the same compound, the GI50 [17] was 37.2 µM (inactive), the GI50 [18] was 99.1 µM (inactive) and the GI50 [19] was 24.7 µM (inactive). For the same compound, the GI50 [20] was 32 µM (inactive), the GI50 [21] was > 75.9 µM (inactive) and the GI50 [22] was 27.9 µM (inactive). For the same compound, the GI50 [56] was > 100 µM (inactive), the GI50 [23] was 16.7 µM (inactive) and the GI50 [25] was 21.6 µM (inactive). For the same compound, the GI50 [26] was 41.5 µM (inactive), the GI50 [27] was 90.2 µM (inactive) and the GI50 [28] was 74.1 µM (inactive). The GI50 [29] was 24.3 µM (inactive), the GI50 [32] was 36.9 µM (inactive) and the GI50 [33] was 59.4 µM (inactive). The GI50 [34] was > 100 µM (inactive), the GI50 [35] was 45.4 µM (inactive) and the GI50 [37] was 29.4 µM (inactive). For the same compound, the GI50 [38] was 31.3 µM (inactive), the GI50 [39] was > 100 µM (inactive) and the GI50 [40] was 36.3 µM (inactive). The GI50 [41] was > 100 µM (inactive), the GI50 [42] was > 74.1 µM (inactive) and the GI50 [43] was 51.8 µM (inactive). For the same compound, the GI50 [44] was > 100 µM (inactive), the GI50 [45] was 51.4 µM (inactive) and the GI50 [46] was > 87.9 µM (inactive). The GI50 [47] was 99.3 µM (inactive), the GI50 [48] was > 63.1 µM (inactive) and the GI50 [49] was 36.5 µM (inactive). The GI50 [58] was > 73.6 µM (inactive), the GI50 [50] was 41.9 µM (inactive) and the GI50 [51] was 42.8 µM (inactive). The GI50 [52] was 47.6 µM (inactive), the GI50 [53] was 28.7 µM (inactive) and the GI50 [54] was > 100 µM (inactive).
